In the CheMixHub viscosity set:

Test: xn = mol fraction of the nth substance listed

Cc1ccc(O)cc1 + C1CCCCC1
viscosity [mPa·s]
Details	101 kPa	101.33 kPa
303.15 K, x2 = 0.1014	7.352	7.352
303.15 K, x2 = 0.1683	5.44	5.44
303.15 K, x2 = 0.3021	4.004	4.004
303.15 K, x2 = 0.3949	2.988	2.988
303.15 K, x2 = 0.5007	2.25	2.25
303.15 K, x2 = 0.6007	1.732	1.732
303.15 K, x2 = 0.7004	1.35	1.35
303.15 K, x2 = 0.7973	1.11	1.1
303.15 K, x2 = 0.8999	0.909	0.909
308.15 K, x1 = 0.0725	0.8571	–
308.15 K, x1 = 0.2007	1.086	–
308.15 K, x1 = 0.3167	1.393	–
308.15 K, x1 = 0.3977	1.673	–
308.15 K, x1 = 0.5218	2.252	–
308.15 K, x1 = 0.6527	3.175	–
308.15 K, x1 = 0.7637	4.421	–
308.15 K, x1 = 0.8681	6.119	–
308.15 K, x1 = 0.9441	7.786	–

Cc1cccc(C)c1 + C1CCCCC1
101 kPa
Details	viscosity [mPa·s]
303 K, x1 = 0.1017	0.7217
303 K, x1 = 0.2009	0.6601
303 K, x1 = 0.3085	0.6191
303 K, x1 = 0.4005	0.5943
303 K, x1 = 0.503	0.5759
303 K, x1 = 0.5848	0.5648
303 K, x1 = 0.7009	0.552
303 K, x1 = 0.8041	0.5484
303 K, x1 = 0.9025	0.5445
308.15 K, x2 = 0.0628	0.516
308.15 K, x2 = 0.1619	0.5217
308.15 K, x2 = 0.2398	0.522
308.15 K, x2 = 0.3421	0.5304
308.15 K, x2 = 0.4497	0.5417
308.15 K, x2 = 0.5501	0.5626
308.15 K, x2 = 0.6692	0.587
308.15 K, x2 = 0.7673	0.6144
308.15 K, x2 = 0.8649	0.6595
308.15 K, x2 = 0.9489	0.7148
313 K, x1 = 0.1017	0.6251
313 K, x1 = 0.2009	0.5799
313 K, x1 = 0.3085	0.548
313 K, x1 = 0.4005	0.5296
313 K, x1 = 0.503	0.5178
313 K, x1 = 0.5848	0.508
313 K, x1 = 0.7009	0.5009
313 K, x1 = 0.8041	0.493
313 K, x1 = 0.9025	0.492
313.15 K, x2 = 0.0628	0.4892
313.15 K, x2 = 0.1619	0.4949
313.15 K, x2 = 0.2398	0.4963
313.15 K, x2 = 0.3421	0.5022
313.15 K, x2 = 0.4497	0.5152
313.15 K, x2 = 0.5501	0.5304
313.15 K, x2 = 0.6692	0.5548
313.15 K, x2 = 0.7673	0.5837
313.15 K, x2 = 0.8649	0.6213
313.15 K, x2 = 0.9489	0.6685
323 K, x1 = 0.1017	0.5481
323 K, x1 = 0.2009	0.5125
323 K, x1 = 0.3085	0.4884
323 K, x1 = 0.4005	0.4736
323 K, x1 = 0.503	0.4625
323 K, x1 = 0.5848	0.4562
323 K, x1 = 0.7009	0.45
323 K, x1 = 0.8041	0.4466
323 K, x1 = 0.9025	0.4461

O=S(=O)(Cl)Cl + C1CCCCC1
298.15 K, 101 kPa
Details	viscosity [mPa·s]
x1 = 0.321	0.7303
x1 = 0.647	0.677
x1 = 0.797	0.6695

O=S1(=O)CCCC1 + C1CCOC1
viscosity [mPa·s], 101 kPa
Details	303.15 K	308.15 K	313.15 K	318.15 K	323.15 K
x2 = 0.268	3.74	2.9	3.41	2.93	2.68
x2 = 0.541	1.53	1.46	1.34	1.26	1.18
x2 = 0.772	0.77	0.74	0.72	0.7	0.68

Cc1ccc(O)cc1 + C1COCCO1
viscosity [mPa·s], 101 kPa
Details	303.15 K	308.15 K	313.15 K	318.15 K
x1 = 0.0835	1.335	1.184	1.097	0.9967
x1 = 0.1701	1.476	1.319	1.201	1.106
x1 = 0.26	1.752	1.563	1.422	1.289
x1 = 0.3534	2.165	1.887	1.71	1.542
x1 = 0.4504	2.798	2.473	2.175	1.964
x1 = 0.5515	3.65	3.108	2.733	2.409
x1 = 0.6567	4.783	4.09	3.524	–
x1 = 0.7663	6.413	5.276	4.492	3.804
x1 = 0.8807	8.261	5.704	5.704	4.834
x2 = 0.1	–	6.901	–	–
x2 = 0.2	–	5.697	–	–
x2 = 0.3	–	4.498	–	–
x2 = 0.4	–	3.461	–	–
x2 = 0.5	–	2.724	–	–
x2 = 0.6	–	2.14	–	–
x2 = 0.7	–	1.705	–	–
x2 = 0.8	–	1.401	–	–
x2 = 0.9	–	1.142	–	–

Cc1cccc(C)c1 + C1COCCO1
Details	viscosity [mPa·s]
298.15 K, 101 kPa, x2 = 0.7182	1.005

NCCCO + C1COCCO1
viscosity [mPa·s], 101 kPa
Details	x1 = 0.1197	x1 = 0.2269	x1 = 0.3332	x1 = 0.4339	x1 = 0.5403	x1 = 0.6385	x1 = 0.7328	x1 = 0.8244	x1 = 0.9072
298.15 K	1.419	1.847	2.619	3.465	4.883	6.97	10.21	15	20.98
303.15 K	1.294	1.654	2.311	3.05	4.251	5.966	8.411	12.14	16.7
308.15 K	1.188	1.488	2.037	2.674	3.624	4.916	6.868	9.516	13.47

O=S1(=O)CCCC1 + C1COCCO1
viscosity [mPa·s], 101 kPa
Details	x1 = 0.0809	x1 = 0.1742	x1 = 0.2786	x1 = 0.3855	x1 = 0.4739	x1 = 0.5744	x1 = 0.6247	x1 = 0.7169	x1 = 0.8462	x1 = 0.9062
303.15 K	1.276	1.517	1.854	2.293	2.756	3.428	3.841	4.786	6.656	7.852
313.15 K	1.086	1.284	1.558	1.912	2.28	2.809	3.13	3.861	5.275	6.164
323.15 K	0.9369	1.104	1.332	1.622	1.922	2.348	2.605	3.182	4.278	4.942

O=S1(=O)CCCC1 + C1COCO1
viscosity [mPa·s], 101 kPa
Details	303.15 K	308.15 K	313.15 K	318.15 K	323.15 K
x1 = 0.207	0.89	0.85	0.82	0.78	0.75
x1 = 0.43	1.49	1.39	1.24	1.21	1.17
x1 = 0.658	3.04	2.53	2.32	2.12	1.99

C1CC[NH2+]C1.CCCCCCCC(=O)[O-] + CC#N
viscosity [mPa·s], 101 kPa
Details	x1 = 0.1601	x1 = 0.2228	x1 = 0.2843	x1 = 0.3982	x1 = 0.4849	x1 = 0.609	x1 = 0.6946	x1 = 0.7891	x1 = 0.9081
293.15 K	5.42	6.71	7.22	11.37	13.54	18.24	24.41	33.6	51.93
298.15 K	4.61	6.42	7.9	9.98	12.08	16.32	22.17	30.5	44.73
303.15 K	3.37	3.58	5.31	8.14	9.96	14.01	17.35	24.21	35.95
308.15 K	2.41	3.39	5.02	7.88	9.48	13.07	15.79	21.95	30.54
313.15 K	1.92	2.99	4.35	6.59	8.46	10.7	14.2	18.22	25.69

CCC(C)O (stereo not drawn) + CC#N
Details	viscosity [mPa·s]
293.15 K, 101 kPa, x2 = 0.1644	1.655

CCCCn1cc[n+](C)c1.F[B-](F)(F)F + CC#N
Details	viscosity [mPa·s]
298.15 K, 101 kPa, x2 = 0.0956	79.7

Cc1ccc(O)cc1 + CC(=O)O
viscosity [mPa·s], 101 kPa
Details	x2 = 0.1682	x2 = 0.3128	x2 = 0.4383	x2 = 0.5483	x2 = 0.6454	x2 = 0.732	x2 = 0.8094	x2 = 0.8792	x2 = 0.9425
298.15 K	9.47	6.803	5.096	3.918	3.086	2.477	2.038	1.664	1.385
308.15 K	5.756	4.488	3.585	2.902	2.385	1.99	1.674	1.4	1.18
318.15 K	4.584	3.69	3.009	2.473	2.051	1.72	1.447	1.215	1.004

Cc1ccccc1N + CC(=O)O
viscosity [mPa·s], 100 kPa
Details	x1 = 0.1051	x1 = 0.1945	x1 = 0.2862	x1 = 0.3854	x1 = 0.4952	x1 = 0.5994	x1 = 0.6874	x1 = 0.7658	x1 = 0.8879
303.15 K	1.3	1.51	1.73	1.96	2.2	2.43	2.62	2.79	3.04
308.15 K	1.2	1.38	1.56	1.75	1.96	2.15	2.31	2.44	2.65
313.15 K	1.11	1.27	1.42	1.59	1.76	1.93	2.06	2.17	2.34
318.15 K	1.02	1.15	1.28	1.42	1.57	1.7	1.81	1.91	2.04

Cc1ccc(O)cc1 + CC(=O)c1ccccc1
303.15 K, 101 kPa
Details	viscosity [mPa·s]
x2 = 0.1137	10.7
x2 = 0.1526	10.25
x2 = 0.3364	8.205
x2 = 0.426	7.246
x2 = 0.4932	6.538
x2 = 0.5636	5.804
x2 = 0.758	3.823
x2 = 0.8099	3.31
x2 = 0.9433	2.026
